In paper PMC4402678, “Twins in spirit - episode I: comparative preclinical evaluation of [^68Ga]DOTATATE and [^68Ga]HA-DOTATATE” (EJNMMI Research, 2015):
Read-outs that look alike come from different tables or passages of the source. One block for each molecule: values may come before it.

Key:
[1] = mouse, in vivo, iv, Biodistribution Lung, Control
[2] = Biodistribution in AR42J tumor-bearing nude mice; conditions: mouse, 60 min p.i.
[3] = system: AR42J tumor-bearing nude mice; assay: Biodistribution in AR42J tumor-bearing nude mice; conditions: 60 min p.i.
[4] = target: T1, hsst1 (Homo sapiens, UniProt P30872); assay: Competition binding, hsst1 membrane preparations (Millipore), [125I]SST-28 radioligand; conditions: CHO cell membranes (Millipore), [Leu8,D-Trp22,[125I]Tyr25]-somatostatin 28 radioligand; IC50 ± SD; read-out: IC50 hsst 1
T1 construct: purchased Millipore (Schwalbach, Germany), ChemiSCREEN membranes; host or cells: CHO cells stably transfected
Protocol: (§1) Cell membrane preparations of cells expressing the human sst1–5 were obtained from Millipore (Schwalbach, Germany) and PerkinElmer (Rodgau, Germany). Competition binding studies were performed in close analogy to the manufacturer’s protocol. […] To each well, 10 μL of (Leu^8,D-Trp^22,[^125I]Tyr^25)-somatostatin-28 in binding buffer (approx. 100,000 cpm) were added. Then, 5 μg of cell membrane in 80 μL of binding buffer were added per well and incubated for 60 min at RT. The final radioligand concentration in the incubation mixture was 0.42 nM. Membranes were then aspired onto a glass fiber filtermat (Printed Filtermat B, Wallach, Turku, Finland), which had been preconditioned with 0.33% polyethylenimine for 30 min and then washed five times with 300 μL (per well) of wash buffer (50 mM HEPES, 500 mM NaCl, 0.1% BSA, buffered to pH 7.4 using 1 N NaOH), using a Mach II M Harvester 96 (Tomtec CE, Etten-Leur, The Netherlands). Membranes were washed ten times with 150 μL (per well) of wash buffer. The filtermat was then cut into squares containing the membrane from the respective wells, and membrane bound activity was counted in a γ-counter. IC50 values were calculated from bound activity [cpm] using PRISM 6 software (Graph Pad Software, San Diego, CA, USA).
(§2) Data were determined using membrane preparations of CHO cells stably transfected with the respective sst subtype.

[5] = target: T2, hsst5 (Homo sapiens, UniProt P35346); assay: Competition binding, hsst5 membrane preparations (Millipore), [125I]SST-28 radioligand; set-up: purchased Millipore (Schwalbach, Germany), ChemiSCREEN membranes; host or cells: CHO cells stably transfected; conditions: CHO cell membranes (Millipore), [Leu8,D-Trp22,[125I]Tyr25]-somatostatin 28 radioligand; IC50 ± SD; read-out: IC50 hsst 5
Protocol: as §1, §2

[6] = target: T2, hsst5; set-up: method as in PMID 10774879; conditions: read-out: hsst5 affinity, autoradiography assay; cited from earlier work
[7] = pH 7.4, log P O/PBS
[8] = target: T3, hsst3 (Homo sapiens, UniProt P32745); assay: Competition binding, hsst3 membrane preparations (Millipore), [125I]SST-28 radioligand; conditions: CHO cell membranes (Millipore), [Leu8,D-Trp22,[125I]Tyr25]-somatostatin 28 radioligand; IC50 ± SD; read-out: IC50 hsst 3
T3 construct: purchased Millipore (Schwalbach, Germany), ChemiSCREEN membranes; host or cells: CHO cells stably transfected
Protocol: as §1, §2

[9] = system: sst2; set-up: method as in PMID 10774879; conditions: read-out: IC50 (sst2), receptor autoradiography; cited from earlier work

T2 sequence (P35346 whole entry): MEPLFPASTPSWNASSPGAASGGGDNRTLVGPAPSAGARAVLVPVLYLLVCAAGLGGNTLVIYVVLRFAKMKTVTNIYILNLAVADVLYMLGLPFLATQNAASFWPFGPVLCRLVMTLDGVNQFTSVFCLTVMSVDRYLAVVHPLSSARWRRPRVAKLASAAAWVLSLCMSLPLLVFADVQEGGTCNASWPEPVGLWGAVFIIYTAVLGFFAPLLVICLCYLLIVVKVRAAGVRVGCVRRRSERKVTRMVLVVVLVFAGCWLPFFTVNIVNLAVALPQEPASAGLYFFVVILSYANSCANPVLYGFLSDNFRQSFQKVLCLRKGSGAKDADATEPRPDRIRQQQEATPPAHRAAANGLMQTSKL
T3 sequence (P32745 whole entry): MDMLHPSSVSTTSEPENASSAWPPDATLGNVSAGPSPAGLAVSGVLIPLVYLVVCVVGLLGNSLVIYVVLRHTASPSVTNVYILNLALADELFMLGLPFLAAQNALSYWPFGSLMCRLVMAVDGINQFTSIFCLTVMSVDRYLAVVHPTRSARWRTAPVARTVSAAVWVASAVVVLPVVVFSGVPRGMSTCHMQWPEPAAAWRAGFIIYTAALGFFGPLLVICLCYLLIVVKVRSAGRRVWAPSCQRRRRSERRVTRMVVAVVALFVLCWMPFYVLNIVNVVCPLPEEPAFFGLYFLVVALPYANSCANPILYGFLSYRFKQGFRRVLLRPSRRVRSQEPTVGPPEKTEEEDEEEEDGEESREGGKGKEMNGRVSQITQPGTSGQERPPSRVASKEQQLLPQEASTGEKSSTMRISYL
T1 sequence (P30872 whole entry): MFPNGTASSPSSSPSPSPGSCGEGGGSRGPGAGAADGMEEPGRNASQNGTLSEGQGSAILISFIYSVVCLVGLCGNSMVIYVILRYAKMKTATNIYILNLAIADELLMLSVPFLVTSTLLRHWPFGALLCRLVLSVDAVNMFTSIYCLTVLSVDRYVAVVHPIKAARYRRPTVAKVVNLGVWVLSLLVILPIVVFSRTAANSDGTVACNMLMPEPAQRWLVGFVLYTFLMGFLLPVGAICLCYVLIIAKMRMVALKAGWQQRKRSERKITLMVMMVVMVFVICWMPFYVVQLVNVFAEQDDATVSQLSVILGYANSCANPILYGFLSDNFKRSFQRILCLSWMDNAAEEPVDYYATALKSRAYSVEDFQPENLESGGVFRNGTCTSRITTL

Compound: C[C@@H](O)[C@H](NC(=O)[C@@H]1CSSC[C@H](NC(=O)[C@@H](Cc2ccccc2)NC(=O)CN2CCN(CC(=O)O)CCN(CC(=O)O)CCN(CC(=O)O)CC2)C(=O)N[C@@H](Cc2ccc(O)cc2)C(=O)N[C@H](Cc2c[nH]c3ccccc23)C(=O)N[C@@H](CCCCN)C(=O)N[C@@H]([C@@H](C)O)C(=O)N1)C(=O)O [[^68Ga]DOTATATE, [^68Ga]DOTA-Tyr^3-octreotate, metal not drawn]
tissue uptake at 1 h [1]: 8.4 ± 1.4 %ID/g
tissue uptake at 1 h ([2]; in vivo, Biodistribution AR42J tumor, Competition, coinjection of 20 μg/mouse unlabeled TOC, n = 3): 2 ± 0.1 %ID/g
tissue uptake at 1 h ([2]; in vivo, Biodistribution Adrenals, Competition, coinjection of 20 μg/mouse unlabeled TOC, n = 3): 0.4 ± 0.1 %ID/g
tissue uptake at 1 h ([2]; in vivo, Biodistribution Blood, Competition, coinjection of 20 μg/mouse unlabeled TOC, n = 3): 0.4 ± 0.2 %ID/g
tissue uptake at 1 h ([2]; in vivo, Biodistribution Heart, Competition, coinjection of 20 μg/mouse unlabeled TOC, n = 3): 0.2 ± 0.1 %ID/g
tissue uptake at 1 h ([2]; in vivo, Biodistribution Intestine, Competition, coinjection of 20 μg/mouse unlabeled TOC, n = 3): 0.6 ± 0.2 %ID/g
tissue uptake at 1 h ([2]; in vivo, Biodistribution Liver, Competition, coinjection of 20 μg/mouse unlabeled TOC, n = 3): 0.2 ± 0.05 %ID/g
tissue uptake at 1 h ([2]; in vivo, Biodistribution Lung, Competition, coinjection of 20 μg/mouse unlabeled TOC, n = 3): 0.6 ± 0.2 %ID/g
tissue uptake at 1 h ([2]; in vivo, Biodistribution Muscle, Competition, coinjection of 20 μg/mouse unlabeled TOC, n = 3): 0.2 ± 0.1 %ID/g
tissue uptake at 1 h ([2]; in vivo, Biodistribution Spleen, Competition, coinjection of 20 μg/mouse unlabeled TOC, n = 3): 0.2 ± 0.03 %ID/g
tissue uptake at 1 h ([2]; in vivo, Biodistribution Stomach, Competition, coinjection of 20 μg/mouse unlabeled TOC, n = 3): 0.7 ± 0.1 %ID/g
tissue uptake at 1 h ([2]; in vivo, iv, Biodistribution AR42J tumor, Control, tracer only, n = 5): 24.1 ± 4.9 %ID/g
tissue uptake at 1 h ([2]; in vivo, iv, Biodistribution Adrenals, Control, tracer only, n = 5): 5.1 ± 1.4 %ID/g
tissue uptake at 1 h ([2]; in vivo, iv, Biodistribution Blood, Control, tracer only, n = 5): 0.3 ± 0.06 %ID/g
tissue uptake at 1 h ([2]; in vivo, iv, Biodistribution Heart, Control, tracer only, n = 5): 0.3 ± 0.04 %ID/g
tissue uptake at 1 h ([2]; in vivo, iv, Biodistribution Intestine, Control, tracer only, n = 5): 2.7 ± 0.8 %ID/g
tissue uptake at 1 h ([2]; in vivo, iv, Biodistribution Kidney, Control, tracer only, n = 5): 3.9 ± 0.5 %ID/g
tissue uptake at 1 h ([2]; in vivo, iv, Biodistribution Liver, Control, tracer only, n = 5): 0.5 ± 0.1 %ID/g
tissue uptake at 1 h ([2]; in vivo, iv, Biodistribution Muscle, Control, tracer only, n = 5): 0.3 ± 0.2 %ID/g
tissue uptake at 1 h ([2]; in vivo, iv, Biodistribution Pancreas, Control, tracer only, n = 5): 26.1 ± 4.9 %ID/g
tissue uptake at 1 h ([2]; in vivo, iv, Biodistribution Stomach, Control, tracer only, n = 5): 15.9 ± 3.9 %ID/g

Compound: C[C@@H](O)[C@H](NC(=O)[C@@H]1CSSC[C@H](NC(=O)[C@@H](Cc2ccccc2)NC(=O)CN2CCN(CC(=O)O)CCN(CC(=O)O)CCN(CC(=O)O)CC2)C(=O)N[C@@H](Cc2ccc(O)c(I)c2)C(=O)N[C@H](Cc2c[nH]c3ccccc23)C(=O)N[C@@H](CCCCN)C(=O)N[C@@H]([C@@H](C)O)C(=O)N1)C(=O)O [[^68Ga]HA-DOTATATE, [^68Ga]DOTA-3-iodo-Tyr^3-octreotate, metal not drawn]
tissue uptake at 1 h ([2]; AR42J tumor, intravenous, Biodistribution AR42J tumor, Competition, coinjection of 20 μg/mouse unlabeled TOC, n = 3): 5.6 ± 0.7 %ID/g
tissue uptake at 1 h ([2]; AR42J tumor, iv, 25 pmol/mouse, Biodistribution AR42J tumor, Control, tracer only, n = 5): 33.6 ± 10.9 %ID/g
tissue uptake at 1 h ([2]; adrenals, intravenous, Biodistribution Adrenals, Competition, coinjection of 20 μg/mouse unlabeled TOC, n = 3): 1 ± 0.3 %ID/g
tissue uptake at 1 h ([2]; adrenals, iv, 25 pmol/mouse, Biodistribution Adrenals, Control, tracer only, n = 5): 10.8 ± 3.2 %ID/g
tissue uptake at 1 h ([2]; blood, intravenous, Biodistribution Blood, Competition, coinjection of 20 μg/mouse unlabeled TOC, n = 3): 2.5 ± 0.6 %ID/g
tissue uptake at 1 h ([2]; blood, iv, 25 pmol/mouse, Biodistribution Blood, Control, tracer only, n = 5): 0.7 ± 0.3 %ID/g
tissue uptake at 1 h ([2]; heart, intravenous, Biodistribution Heart, Competition, coinjection of 20 μg/mouse unlabeled TOC, n = 3): 1 ± 0.2 %ID/g
tissue uptake at 1 h ([2]; heart, iv, 25 pmol/mouse, Biodistribution Heart, Control, tracer only, n = 5): 0.5 ± 0.2 %ID/g
tissue uptake at 1 h ([2]; intestine, intravenous, Biodistribution Intestine, Competition, coinjection of 20 μg/mouse unlabeled TOC, n = 3): 0.8 ± 0.04 %ID/g
tissue uptake at 1 h ([2]; intestine, iv, 25 pmol/mouse, Biodistribution Intestine, Control, tracer only, n = 5): 4 ± 0.7 %ID/g
tissue uptake at 1 h ([2]; kidney, intravenous, Biodistribution Kidney, Competition, coinjection of 20 μg/mouse unlabeled TOC, n = 3): 17.1 ± 8.7 %ID/g
tissue uptake at 1 h ([2]; kidney, iv, 25 pmol/mouse, Biodistribution Kidney, Control, tracer only, n = 5): 5.3 ± 1 %ID/g
tissue uptake at 1 h ([2]; liver, intravenous, Biodistribution Liver, Competition, coinjection of 20 μg/mouse unlabeled TOC, n = 3): 1 ± 0.3 %ID/g
tissue uptake at 1 h ([2]; liver, iv, 25 pmol/mouse, Biodistribution Liver, Control, tracer only, n = 5): 1 ± 0.2 %ID/g
tissue uptake at 1 h ([2]; lung, intravenous, Biodistribution Lung, Competition, coinjection of 20 μg/mouse unlabeled TOC, n = 3): 2.5 ± 0.4 %ID/g
tissue uptake at 1 h ([2]; lung, iv, 25 pmol/mouse, Biodistribution Lung, Control, tracer only, n = 5): 13.2 ± 1 %ID/g
tissue uptake at 1 h ([2]; muscle, intravenous, Biodistribution Muscle, Competition, coinjection of 20 μg/mouse unlabeled TOC, n = 3): 0.6 ± 0.4 %ID/g
tissue uptake at 1 h ([2]; muscle, iv, 25 pmol/mouse, Biodistribution Muscle, Control, tracer only, n = 5): 0.2 ± 0.1 %ID/g
tissue uptake at 1 h ([2]; pancreas, intravenous, Biodistribution Pancreas, Competition, coinjection of 20 μg/mouse unlabeled TOC, n = 3): 1.5 ± 0.5 %ID/g
tissue uptake at 1 h ([2]; pancreas, iv, 25 pmol/mouse, Biodistribution Pancreas, Control, tracer only, n = 5): 36.6 ± 4.3 %ID/g
tissue uptake at 1 h ([2]; spleen, intravenous, Biodistribution Spleen, Competition, coinjection of 20 μg/mouse unlabeled TOC, n = 3): 0.7 ± 0.2 %ID/g
tissue uptake at 1 h ([2]; spleen, iv, 25 pmol/mouse, Biodistribution Spleen, Control, tracer only, n = 5): 1.9 ± 0.8 %ID/g
tissue uptake at 1 h ([2]; stomach, intravenous, Biodistribution Stomach, Competition, coinjection of 20 μg/mouse unlabeled TOC, n = 3): 1.9 ± 0.8 %ID/g
tissue uptake at 1 h ([2]; stomach, iv, 25 pmol/mouse, Biodistribution Stomach, Control, tracer only, n = 5): 21.7 ± 4.5 %ID/g

Compound: C[C@@H](O)[C@H](NC(=O)[C@@H]1CSSC[C@H](NC(=O)[C@@H](Cc2ccccc2)NC(=O)CN2CCN(CC(=O)O)CCN(CC(=O)O)CCN(CC(=O)O)CC2)C(=O)N[C@@H](Cc2ccc(O)cc2)C(=O)N[C@H](Cc2c[nH]c3ccccc23)C(=O)N[C@@H](CCCCN)C(=O)N[C@@H]([C@@H](C)O)C(=O)N1)C(=O)O [^natGa-DOTATATE, metal not drawn, reference compound]
IC50 [4]: > 1000 nM
IC50 [5]: > 1000 nM
IC50 [6]: 200 to 500 nM
logP [7]: -3.69
IC50 [8]: > 1000 nM

Continued, values first:

Uptake in sst-expressing tissues (stomach, adrenals, pancreas, AR42J tumor), factor of increase compared to [^68Ga]DOTATATE [3]: 1.4 to 2
Compound: C[C@@H](O)[C@H](NC(=O)[C@@H]1CSSC[C@H](NC(=O)[C@@H](Cc2ccccc2)NC(=O)CN2CCN(CC(=O)O)CCN(CC(=O)O)CCN(CC(=O)O)CC2)C(=O)N[C@@H](Cc2ccc(O)c(I)c2)C(=O)N[C@H](Cc2c[nH]c3ccccc23)C(=O)N[C@@H](CCCCN)C(=O)N[C@@H]([C@@H](C)O)C(=O)N1)C(=O)O [[^68Ga]HA-DOTATATE] [[^68Ga]DOTA-3-iodo-Tyr^3-octreotate, metal not drawn]

IC50 [4]: > 1000 nM
IC50 [5]: 102 ± 65 nM
IC50 [8]: > 1000 nM
Compound: C[C@@H](O)[C@H](NC(=O)[C@@H]1CSSC[C@H](NC(=O)[C@@H](Cc2ccccc2)NC(=O)CN2CCN(CC(=O)O)CCN(CC(=O)O)CCN(CC(=O)O)CC2)C(=O)N[C@@H](Cc2ccc(O)c(I)c2)C(=O)N[C@H](Cc2c[nH]c3ccccc23)C(=O)N[C@@H](CCCCN)C(=O)N[C@@H]([C@@H](C)O)C(=O)N1)C(=O)O [^natGa-HA-DOTATATE, metal not drawn]
